# Measured values: ChEMBL document CHEMBL1759841, “8-Hydroxynaphthalene-1,4-dione derivative as novel compound for glioma treatment” (Bioorg Med Chem Lett, 2011)
# Tested on: not listed separately
# Assay: Inhibition of CK2
row,Compound,IC50
1,Cc1ccc(S(=O)(=O)Oc2ccc3ccc(O)cc3c2)cc1,> 40 µM
2,CC1c2cc(Br)c(O)c(Br)c2OC(=O)C1Br (stereo unspecified),2 µM
3,O=C1NC(=O)C(=Cc2ccc(O)cc2O)C(=O)N1,> 40 µM
4,O=C1C=C(c2ccc(O)c(O)c2O)C(=O)c2c(O)ccc(O)c21,3.5 µM
5,C[N+]1(Cc2cc(O)c3c(c2)C(=O)c2cccc(O)c2C3=O)CCOCC1,> 40 µM
6,C[N+](C)(C)CC(=O)OCc1cc(O)c2c(c1)C(=O)c1cccc(O)c1C2=O,> 40 µM
7,CCN(CC)CCC(=O)Nc1ccc(O)c2c1C(=O)c1cccc(O)c1C2=O,> 40 µM
8,O=C1C=C(c2ccc(O)c(O)c2O)C(=O)c2c1cccc2[N+](=O)[O-],23 µM
9,O=c1ccc2cc(S(=O)(=O)N3CCNCC3)cc(Cl)c2o1,> 40 µM
10,Cc1coc2cc3oc(=O)c(NC(=O)CN)cc3cc12,> 40 µM
11,CN(C)c1ccc(C=C2C(=O)NC(=O)NC2=O)cc1,> 40 µM

# Tested on: not listed separately
# Assay: Inhibition of CK1
row,Compound,IC50
1,Cc1ccc(S(=O)(=O)Oc2ccc3ccc(O)cc3c2)cc1,> 40 µM
2,CC1c2cc(Br)c(O)c(Br)c2OC(=O)C1Br (stereo unspecified),> 40 µM
3,O=C1NC(=O)C(=Cc2ccc(O)cc2O)C(=O)N1,> 40 µM
4,O=C1C=C(c2ccc(O)c(O)c2O)C(=O)c2c(O)ccc(O)c21,> 40 µM
5,C[N+]1(Cc2cc(O)c3c(c2)C(=O)c2cccc(O)c2C3=O)CCOCC1,10 µM
6,C[N+](C)(C)CC(=O)OCc1cc(O)c2c(c1)C(=O)c1cccc(O)c1C2=O,> 40 µM
7,CCN(CC)CCC(=O)Nc1ccc(O)c2c1C(=O)c1cccc(O)c1C2=O,> 40 µM
8,O=C1C=C(c2ccc(O)c(O)c2O)C(=O)c2c1cccc2[N+](=O)[O-],> 40 µM
9,O=c1ccc2cc(S(=O)(=O)N3CCNCC3)cc(Cl)c2o1,> 40 µM
10,Cc1coc2cc3oc(=O)c(NC(=O)CN)cc3cc12,> 40 µM
11,CN(C)c1ccc(C=C2C(=O)NC(=O)NC2=O)cc1,> 40 µM

# Target: T1, Aurora kinase A (Homo sapiens, UniProt O14965)
# T1 sequence (O14965 whole entry): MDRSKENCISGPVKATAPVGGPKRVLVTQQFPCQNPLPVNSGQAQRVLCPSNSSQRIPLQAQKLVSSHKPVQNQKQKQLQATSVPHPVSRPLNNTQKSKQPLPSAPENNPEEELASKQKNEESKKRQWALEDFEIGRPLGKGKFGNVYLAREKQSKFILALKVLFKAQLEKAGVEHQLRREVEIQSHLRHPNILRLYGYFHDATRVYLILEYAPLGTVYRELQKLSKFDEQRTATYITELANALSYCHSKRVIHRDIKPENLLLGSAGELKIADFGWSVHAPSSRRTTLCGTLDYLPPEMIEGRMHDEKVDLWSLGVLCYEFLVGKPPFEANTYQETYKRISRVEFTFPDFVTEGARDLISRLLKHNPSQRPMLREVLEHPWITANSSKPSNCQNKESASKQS
# Assay: Inhibition of Aurora A
row,Compound,IC50
1,O=C1C=C(c2ccc(O)c(O)c2O)C(=O)c2c(O)ccc(O)c21,6.2 µM
2,O=C1C=C(c2ccc(O)c(O)c2O)C(=O)c2c1cccc2[N+](=O)[O-],4.8 µM

# Tested on: not listed separately
# Assay: Inhibition of PKA
row,Compound,IC50
1,O=C1C=C(c2ccc(O)c(O)c2O)C(=O)c2c1cccc2[N+](=O)[O-],14 µM

# Target: Dual specificity tyrosine-phosphorylation-regulated kinase 1A (Homo sapiens, UniProt Q13627)
# Assay: Inhibition of DYRK1a
row,Compound,IC50
1,O=C1C=C(c2ccc(O)c(O)c2O)C(=O)c2c(O)ccc(O)c21,21.4 µM
